# Experimental data published in patent publication US8202875B2, “Selective insecticides based on substituted cyclic ketoenols and safeners” (Bayer Cropscience AG, priority 2004, dated 2012).
# Experiments:
# Assay type in all cases: in vivo
# [1] = system: cotton aphid (Aphis gossypii); assay: Aphis gossypii test, spray application on cotton plants; settings: 100 ppm
# Source text: (§1) The expected activity of a given combination of two active compounds can be calculated as follows (cf. Colby, S. R., “Calculating Synergistic and Antagonistic Responses of Herbicide Combinations”, Weeds 15, pages 20-22, 1967):
# (§2) • X is the kill rate expressed in % of the untreated control when employing active compound A at an application rate of m ppm, • Y is the kill rate expressed in % of the untreated control when employing active compound B at an application rate of n ppm, • E is the kill rate expressed in % of the untreated control when using the active compounds A and B at application rates of m and n ppm,
# (§3) If the actual insecticidal kill rate exceeds the calculated value, the kill of the combination is superadditive, i.e. a synergistic effect is present. In this case, the actually observed kill rate must exceed the value calculated using the above formula for the expected kill rate (E).
# (§4) Adjuvant: rapeseed oil methyl ester (0.1% of a.i./l)
# (§5) To prepare a suitable application solution, 1 part by weight of formulation is mixed with the appropriate amount of water and the adjuvant and the concentrate is diluted with water to the desired concentration. […]
# (§6) After the desired period of time, the kill in % is determined. […] The determined kill rates are entered in Colby's formula.
# [2] = system: grain aphid (Metopolophium dirhodum); assay: Metopolophium dirhodum test, spray application on barley plants
# Source text: as §1, §2, §3, §4, §5, §6
# [3] = system: green peach aphid (Myzus persicae); assay: Myzus persicae test, spray application on bell pepper plants
# Source text: as §1, §2, §3, §4
# To prepare a suitable application solution, 1 part by weight of formulation is mixed with the appropriate amount of water and the adjuvant and the concentrate is diluted with water to the desired concentration.
# Bell pepper plants (Capsicum sativum) which are heavily infested by the green peach aphid (Myzus persicae) are sprayed to runoff point with the desired concentration of the application solution.
# After the desired period of time, the kill in % is determined. 100% means that all aphids have been killed; 0% means that none of the aphids have been killed. The determined kill rates are entered in Colby's formula.
# [4] = system: bird cherry-oat aphid (Rhopalosiphum padi); assay: Safener test after spraying: kill of aphids on barley (greenhouse); settings: 100 g of a.i./ha, barley at 2-leaf stage, spray boom
# Protocol: (§7) Method: Safener test after spraying
# (§8) Solvent: 7 parts by weight of DMF
# (§9) Emulsifier: 2 parts by weight of alkylaryl polyglycol ether
# (§10) To produce a suitable preparation of active compound, 1 part by weight of active compound is mixed with the stated amounts of solvent and emulsifier, and the concentrate is diluted with tap water to the desired concentration. The desired amount of safener (in the case of mefenpyr-diethyl as WP 20) is mixed into the water used for dilution. Furthermore, 2 g of a.i./l of rapeseed oil methyl ester 500 EW are added. Leaves of winter barley at the 2-leaf stage which are infested by the bird cherry-oat aphid (Rhopalosiphum padi) are treated with the desired active compound and safener concentrations using a spray boom, the water application rate being […]. Per variant, the test is carried out at least twice. Evaluation is carried out after 7 d and/or 14 d by assessing the plant damage in % and the kill of the grain aphids in % compared to the untreated control. 100% damage means that the plant has died, and 0% means no damage. 100% effect on the grain aphids means that all aphids have been killed; 0% means that none of the aphids have been killed.
# (§11) Results for greenhouse trials with safener after spraying against Rhopalosiphum padi on summer barley/winter barley
# winter barley = assay: Safener test after spraying: plant damage to barley (greenhouse); settings: 100 g of a.i./ha
# Protocol: as §7, §8, §9, §10, §11
smiles,measurement,setting,value
"C=CCN(CC=C)C(=O)C(Cl)Cl [Dichlormid a.i., 2,2-dichloro-N,N-di-2-propenyl-acetamide]","Kill rate in % after 7 d, found",[1],0%
same,"Kill rate in % after 7 d, found",[2]; 100 ppm,0%
same,"Kill rate in % after 7 d, found",[3]; 100 ppm,0%
"CC1(C)OC(c2ccco2)CN1C(=O)C(Cl)Cl (centres unmarked) [Furilazole a.i., 3-dichloroacetyl-5-(2-furanyl)-2,2-dimethyl-oxazolidine]","Kill rate in % after 7 d, found",[3]; 50 ppm,0%
"Clc1cc(Cl)nc(-c2ccccc2)n1 [Fenclorim a.i., 4,6-dichloro-2-phenyl-pyrimidine]","Kill rate in % after 7 d, found",[2]; 25 ppm,0%
same,"Kill rate in % after 7 d, found",[3]; 50 ppm,0%
"CCOC(=O)C1=NN(c2ccc(Cl)cc2Cl)C(C)(C(=O)OCC)C1 (centres unmarked) [mefenpyr-diethyl, diethyl 1-(2,4-dichloro-phenyl)-4,5-dihydro-5-methyl-1H-pyrazole-3,5-dicarboxylate]",Kill (%) 7 d,[4],0%
same,Damage to new growth (%) 7 d,winter barley; 7 d,0%
same,Damage (%) 7 d,"winter barley; 7 d, 100% = plant has died",0%
same,Damage to new growth (%) 14 d,winter barley; 14 d,0%
same,Damage (%) 14 d,"winter barley; 14 d, 100% = plant has died",0%
